Assay results from US20260241008A1, “COMPOSITION CONTAINING SELF-ASSEMBLED STRUCTURE AND FREEZE-DRIED PRODUCT THEREOF” (Resonac Corporation, priority 2023, published 2026).

Assay: Krafft point of TPNa aqueous solution
Type: physicochemical

Cc1c(C)c2c(c(C)c1OP(=O)([O-])[O-])CCC(C)(CCCC(C)CCCC(C)CCCC(C)C)O2.[Na+].[Na+] (racemic) [TPNa, sodium salt of the dl-α-tocopheryl phosphate]
Krafft point (Kp): 16.2 °C
